Publication PMC3849007 (Journal of Experimental & Clinical Cancer Research : CR, 2013)
Counter-ions that a name gives are not always drawn.

Legend:
[1] = tested on: h-Tel quadruplex (Q) DNA, 5'-biotin-d[AG3(T2AG3)3] (DNA, G4) AGGGTTAGGGTTAGGGTTAGGG; test: surface plasmon resonance; details: 200 mM KCl; 10 mM HEPES, 3 mM EDTA, 0.01% P20, pH 7.4
BJ-EHLT fibroblasts = test: Proliferation assay, transformed fibroblasts; format: cell-based, human; details: 0.5 μM, culture day 2 to 8
Method: (§1) BJ fibroblasts expressing hTERT (BJ-hTERT) or hTERT and SV40 early region (BJ-EHLT), were obtained as previously reported. Cells were grown in Dulbecco Modified Eagle Medium (D-MEM, Invitrogen Carlsbad, CA, USA) supplemented with 10% fetal calf serum, 2 mM L-glutamin and antibiotics.
(§2) 5 × 10^4 cells were seeded in 60-mm Petri plates (Nunc, MasciaBrunelli, Milano, Italy) and 24 h after plating, 0.5 μM of freshly dissolved compound was added to the culture medium. Cell counts (Coulter Counter, Kontron Instruments, Milano, Italy) and viability (trypan blue dye exclusion) were determined daily, from day 2 to day 8 of culture.

[2] = tested on: h-Tel quadruplex DNA 5′-d[AGGG(TTAGGG)3]-3′; test: Surface plasmon resonance, quadruplex DNA; details: for Surface plasmon resonance K, Quadruplex (Q) DNA: 10 mM HEPES, 200 mM KCl, 3 mM EDTA, 0.01% P20, pH 7.4, equilibrium binding constant
Text: Oligonucleotides 5′-biotin-d[AG3(T2AG3)3] quadruplex and 5′-biotin-CGA3T3C(CT)2GA3T3CG were purchased from Midland Certified Reagent Company (Midland, TX).
In the present work these measurements were repeated comparing ligand binding to the same h-Tel sequence but with a different duplex sequence 5′-d[CGA3T3C(CT)2GA3T3CG]-3′ as comparator.

[3] = tested on: h-Tel (anti-parallel) quadruplex; test: CD thermal unfolding of h-Tel quadruplex; format: binding, human
Method: CD spectra were recorded on an Applied Photophysics Pi-Star-180 spectrophotometer (Applied Photophysics Ltd, Surrey, UK). The optical system was configured with a 75 W Xe lamp, circular light polarizer and end-mounted photomultiplier. The instrument had previously been calibrated with (D)-camphorsulfonic acid. Temperature was regulated using a Neslab RTE-300 circulating programmable water bath (Neslab Inc). CD spectra were recorded at 298 K in a 10 mm path length cell over a wavelength range of 215–345 nm in steps of either 1 0r 2 nm, with 3 nm entrance/exit slit widths: the number of counts was set to 10,000 with adaptive sampling set to 500,000. The spectra were corrected by subtracting the spectrum of the same buffer solution of 100 mM potassium chloride and 10 mM potassium phosphate at pH 7.0. Annealing and melting profiles were recorded using a thermoelectric temperature controller (Melcor) on 4 μM DNA samples with and without 3.5 mol.equiv. of ligands using 0.5 K temperature increments and a cooling or heating rate of 0.2 K/min over the temperature range 298-368 K.
This analysis was extended to examine the effects of ligand binding on thermal stability by measuring the unfolding curves at 290 nm of the complexes formed in K^+ solution, corresponding to the CD spectra shown in Figure 4a. Monitoring the thermal unfolding transition for h-Tel produces a sigmoidal unfolding curve with a transition mid-point Tm value of 72 ± 3°C (Figure 4c). All three ligands show significant effects in enhancing the stability of the quadruplex by shifting the Tm values to higher temperatures (∆Tm ~ 15-19°C compared to h-Tel without bound ligands) (Table 1).

NCI60 panel = NCI60 panel growth inhibition; format: cell-based, human
BJ-hTERT fibroblasts = test: Proliferation assay, normal telomerised fibroblasts; format: cell-based, human; details: 0.5 μM, culture day 2 to 8
Method: as §1, §2

[4] = tested on: h-Tel 5'-d[AGGG(TTAGGG)3]-3' (DNA, G4) AGGGTTAGGGTTAGGGTTAGGG; test: CD melting at 290 nm; details: 110 mM K+ (100 mM KCl, potassium phosphate); 10 mM potassium phosphate, pH 7.0; 4 μM DNA, 3.5 mol equiv. ligand; Tm 89 ± 3
[5] = target: T1, human recombinant β2 adrenergic receptor (Homo sapiens, UniProt P07550); test: β2-adrenergic receptor binding assay (CHO expressing cells)
T1 construct: expressed in transfected cells; host or cells: CHO
T1 sequence (P07550 whole entry): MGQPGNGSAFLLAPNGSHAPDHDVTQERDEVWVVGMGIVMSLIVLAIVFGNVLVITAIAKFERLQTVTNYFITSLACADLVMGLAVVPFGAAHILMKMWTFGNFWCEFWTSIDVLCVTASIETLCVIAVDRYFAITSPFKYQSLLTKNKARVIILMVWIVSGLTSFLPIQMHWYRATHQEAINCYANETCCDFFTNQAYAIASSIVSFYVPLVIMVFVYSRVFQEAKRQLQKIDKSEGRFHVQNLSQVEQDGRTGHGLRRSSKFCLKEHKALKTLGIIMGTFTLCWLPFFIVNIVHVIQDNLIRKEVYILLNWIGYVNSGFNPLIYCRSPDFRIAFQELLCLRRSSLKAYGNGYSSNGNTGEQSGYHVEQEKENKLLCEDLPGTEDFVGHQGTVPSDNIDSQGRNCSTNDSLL
Method: (§3) For hERG study, HEK293 cells were cultured (1–7 days) in DMEM/GlutaMax-1 + 10% FBS and were plated on collagen-coated dishes (about 2×10^4 cells/dish). The cell was held at -80 mV. A 50-millisecond pulse to -40 mV was delivered to measure the leaking currents, which were subtracted from the tail currents online. […] This paradigm was delivered once every 5 seconds to monitor the current amplitude. After the current amplitude stabilized, the test compound was delivered to the extracellular medium by a rapid solution changer perfusion system. During perfusion, the cell was repetitively stimulated with the protocol described above, and the current amplitude was continuously monitored. Data were acquired and analyzed by using pClamp (Axon Instruments), and Excel (Microsoft), and are reported as mean and individual values. The degree of inhibition (%) was obtained by measuring the tail current amplitude before and after drug superfusion (the difference current was normalized to control and multiplied by 100 to obtain the percent of inhibition). […] The concentration-response relationship of each compound was constructed from the percentage reductions of current amplitude by sequential concentrations. β2-adrenergic receptor CHO expressing cells were used for the receptor inhibition assay as described. The results are expressed as a percent of inhibition of control specific binding (100 - (measured specific binding/control specific binding) × 100)) obtained in the presence of the test compounds. The specific ligand binding to the receptors is defined as the difference between the total binding and the nonspecific binding determined in the presence of an excess of unlabelled ligand. All the in-vivo experiments were carried out at the Regina Elena Cancer Institute.
Inhibition of receptor was reported as inhibition of control specific binding (100 - (measured specific binding/control specific binding) × 100) obtained in the presence of the test compounds.

[6] = tested on: h-Tel 5'-d[AGGG(TTAGGG)3]-3' (DNA, G4) AGGGTTAGGGTTAGGGTTAGGG; test: CD spectroscopy, induced anti-parallel structure; details: no significant K+; 298 K; 3.5 molar equivalents of ligand; band at 290 nm emerges
[7] = tested on: Telomere dysfunction Induced Foci in BJ-EHLT fibroblasts; test: TIF analysis (γH2AX/TRF1 co-localization); format: cell-based, human; details: 24 hrs
Method: (§4) Cells were fixed in 2% formaldehyde and permeabilized in 0.25% Triton X100 in PBS for 5 min at room temperature. For immunolabeling, cells were incubated with primary antibody, then washed in PBS and incubated with the secondary antibodies. The following primary antibodies were used: pAb and mAb anti-TRF1 (Abcam Ltd.; Cambridge UK); mAb (Upstate, Lake Placid, NY) and pAb anti-γH2AX (Abcam). The following secondary antibody were used: TRITC conjugated Goat anti Rabbit, FITC conjugated Goat anti Mouse (Jackson ImmunoResearch Europe Ltd., Suffolk, UK). Fluorescence signals were recorded by using a Leica DMIRE2 microscope equipped with a Leica DFC 350FX camera and elaborated by a Leica FW4000 deconvolution software (Leica, Solms, Germany). This system permits to focus single planes inside the cell generating 3D high-resolution images. For quantitative analysis of γH2AX positivity, 200 cells on triplicate slices were scored. For TIF’s analysis, in each nucleus a single plane was analyzed and at least 50 nuclei per sample were scored.

[8] = tested on: telomere aberrations in BJ-EHLT fibroblasts; test: Telomere FISH on metaphase spreads; format: cell-based, human; details: 0.5 μM, 72 hrs
Method: For metaphase chromosome preparation cells were treated with demecolcine (Sigma, Milan, Italy) 0.1 mg/ml for 4 h and then harvested and washed in 75 mM KCl for 5 min at 37°C. After centrifugation cells were fixed in MeOH/acetic acid 3:1 overnight and then spread on slides. Hybridization with rhodamine-coupled PNA was performed as described. For each sample 20 metaphases per slice on triplicate were scored. Images of the metaphases were captured with a 100 × objective.

[9] = tested on: γH2AX in BJ-EHLT fibroblasts; test: Immunofluorescence for γH2AX (DNA damage response); format: cell-based, human; details: 0.5 μM, 24 hrs
Method: as §4

[10] = tested on: duplex (D) DNA hairpin, 5'-biotin-CGA3T3C(CT)2GA3T3CG (DNA, hairpin) CGAAATTTCCTCTGAAATTTCG; test: surface plasmon resonance; details: 200 mM KCl; 10 mM HEPES, 3 mM EDTA, 0.01% P20, pH 7.4
hERG = target: T2, hERG (Homo sapiens, UniProt Q12809); test: hERG tail current inhibition, patch clamp assay; format: cell-based; details: human, HEK293 cells (hERG study), 10 μM, HEK293 cells, read-out: hERG % inhib. (10 μM)
T2 construct: expressed in transfected cells; host or cells: HEK293
T2 sequence (Q12809 whole entry): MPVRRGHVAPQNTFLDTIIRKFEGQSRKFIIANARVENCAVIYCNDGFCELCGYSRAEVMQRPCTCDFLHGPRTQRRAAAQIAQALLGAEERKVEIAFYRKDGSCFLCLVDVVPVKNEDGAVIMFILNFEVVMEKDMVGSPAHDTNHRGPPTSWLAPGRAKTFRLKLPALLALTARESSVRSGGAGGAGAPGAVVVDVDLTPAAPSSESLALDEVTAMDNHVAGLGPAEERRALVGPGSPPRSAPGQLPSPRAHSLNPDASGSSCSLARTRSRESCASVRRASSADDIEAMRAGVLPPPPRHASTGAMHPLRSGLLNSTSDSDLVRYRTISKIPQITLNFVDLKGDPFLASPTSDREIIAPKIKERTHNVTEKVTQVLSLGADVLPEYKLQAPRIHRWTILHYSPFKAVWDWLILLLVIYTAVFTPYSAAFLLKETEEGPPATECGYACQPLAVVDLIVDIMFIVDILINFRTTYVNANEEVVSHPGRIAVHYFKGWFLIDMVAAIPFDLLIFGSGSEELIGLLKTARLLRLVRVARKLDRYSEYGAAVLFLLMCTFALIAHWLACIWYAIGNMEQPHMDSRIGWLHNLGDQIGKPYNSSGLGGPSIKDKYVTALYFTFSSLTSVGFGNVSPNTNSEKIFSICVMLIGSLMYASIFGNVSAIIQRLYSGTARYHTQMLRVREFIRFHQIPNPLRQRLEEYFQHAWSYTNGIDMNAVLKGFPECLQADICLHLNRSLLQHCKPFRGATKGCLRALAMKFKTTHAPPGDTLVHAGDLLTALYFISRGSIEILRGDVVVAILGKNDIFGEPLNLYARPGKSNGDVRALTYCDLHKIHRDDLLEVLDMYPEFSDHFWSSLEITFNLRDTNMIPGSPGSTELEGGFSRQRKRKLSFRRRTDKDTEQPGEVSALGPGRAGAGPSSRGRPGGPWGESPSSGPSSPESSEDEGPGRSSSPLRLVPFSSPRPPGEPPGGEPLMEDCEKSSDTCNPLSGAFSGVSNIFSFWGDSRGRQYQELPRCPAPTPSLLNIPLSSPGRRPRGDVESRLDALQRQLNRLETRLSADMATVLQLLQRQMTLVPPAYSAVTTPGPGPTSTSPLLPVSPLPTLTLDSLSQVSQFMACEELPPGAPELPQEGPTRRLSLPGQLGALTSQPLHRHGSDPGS
Method: as §3, with “Institute. All procedures involving animals and care were performed in compliance with our institutional animal care guidelines and with international directives (directive 2010/63/EU of the European parliament and of the council; Guide for the Care and Use of Laboratory Animals, United States National Research Council, 2011).” for “Institute.”

CC[n+]1c2c3c(cc(C)cc3c3cc(F)ccc31)N(C)c1ccc(F)cc1-2
K [1]: 600000 M⁻¹

CC[n+]1c2c3c(cc(C)cc3c3cc(F)ccc31)N(C)c1ccc(F)cc1-2 (as salt: sulfate) [Compound 8, 13-Ethyl-3,11-difluoro-6,8-dimethyl-8H-quino[4,3,2-kl]acridinium trifluoromethosulfate]
melting point: > 250 °C (dec.)

CC(=O)Nc1ccc2c3cccc4c3c([n+](C)c2c1)-c1ccccc1N4C [Compound 2, 2-Acetylamino-8,13-dimethyl-8H-quino[4,3,2-kl]-acridinium iodide]
day of maximum effect on cell proliferation (BJ-EHLT fibroblasts): 6 days | Surface plasmon resonance K, Quadruplex (Q) DNA [2]: 1.5e+07 M⁻¹ | CD study thermal stability ∆Tm ([3]; compared to h-Tel without bound ligand (Tm 70 ± 3)): 19 °C | CD study thermal stability Tm ([3]; h-Tel 4 μM with 3.5 mol.equiv. ligand, K+ solution, unfolding at 290 nm): 89 ± 3 °C | GI50 (NCI60 panel; Homo sapiens, NCI data, read-out: Mean GI50 value from the NCI60 panel): 12 µM | effect on cell proliferation in a panel of different histotype tumor cell lines (NCI60 panel; several human cancer cell lines): maintained an anti-proliferative effect | inhibition of cell proliferation in normal telomerized fibroblasts (BJ-hTERT fibroblasts): did not induce inhibition of cell proliferation | ∆Tm [4]: 19 °C | inhibition at 10 µM ([5]; 10 μM, inhibition of control specific binding, CHO cells, read-out: B2 adrenergic % inhib. (10 μM)): 24% | decay of β2-adrenergic receptor inhibition compared to 1 ([5]; comparing 1 to the compound): 75% | K [1]: 1.5e+07 M⁻¹ | binding [6]: yes | percentage of TIF-positive cells ([7]; cells with more than four γH2AX/TRF1 co-localizations): comparable levels with respect to 1 | number of TIFs per nucleus ([7]; mean): ca. eight | telomere aberrations (telomere doublets, sister telomere fusions) [8]: quantitatively similar to the lead compound | percentage of cells positive for γH2AX [9]: quite similar to compound 1 | K [10]: 400000 M⁻¹

CC[n+]1c2c3c(cc(C)cc3c3cc(F)ccc31)N(C)c1ccc(F)cc1-2 [Compound 8, 13-Ethyl-3,11-difluoro-6,8-dimethyl-8H-quino[4,3,2-kl]acridinium trifluoromethosulfate]
inhibition at 10 µM (hERG): 18% | Surface plasmon resonance K, Quadruplex (Q) DNA [2]: 600000 M⁻¹ | fold reduction in on-target effect against h-Tel DNA sequence (SPR) relative to 1 ([2]; relative to compound 1): > 10 fold
